According to PubChem BioAssay (NCI):
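Interpolation was linear, between the two tested concentrations surrounding the appropriate level; five concentrations were tested over 48 hours in 96-well plates. The concentration for 50% growth inhibition is given as GI50. TGI marks complete inhibition of growth.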

Tests used:
Experiment in all cases: inhibition of tumour cell growth, NCI panel, 48 h
SW-620 colon = test system: SW-620 colon
SN12C renal = test system: SN12C renal
SF-268 CNS = test system: SF-268 CNS
NCI-H522 lung = test system: NCI-H522 lung
MDA-MB-231 breast = test system: MDA-MB-231 breast
EKVX NSCLC = test system: EKVX NSCLC
SF-539 CNS = test system: SF-539 CNS
HOP-92 NSCLC = test system: HOP-92 NSCLC
UO-31 renal = test system: UO-31 renal
SNB-19 CNS = test system: SNB-19 CNS

Row | Compound | GI50 (SW-620 colon) [µM] | TGI (SW-620 colon) [µM] | GI50 (SN12C renal) [µM] | TGI (SN12C renal) [µM] | GI50 (SF-268 CNS) [µM] | TGI (SF-268 CNS) [µM] | GI50 (NCI-H522 lung) [µM] | TGI (NCI-H522 lung) [µM] | GI50 (MDA-MB-231 breast) [µM] | TGI (MDA-MB-231 breast) [µM] | GI50 (EKVX NSCLC) [µM] | TGI (EKVX NSCLC) [µM] | GI50 (SF-539 CNS) [µM] | TGI (SF-539 CNS) [µM] | TGI (HOP-92 NSCLC) [µM] | TGI (UO-31 renal) [µM] | TGI (SNB-19 CNS) [µM] | GI50 (HOP-92 NSCLC) [µM] | GI50 (UO-31 renal) [µM] | GI50 (SNB-19 CNS) [µM]
1 | CN1CCC(CNc2cc(C3(C(=O)Nc4cc(C(=O)Nc5ccc(Cl)c(C(F)(F)F)c5)ccc4F)CC3)ncn2)CC1 | 2.54 | 5.32 | 2.56 | 8.92 | 2.08 | 5.5 | 2.01 | 4.55 | 1.42 | 2.99 | 2.46 | 6.62 | 1.61 | 3.19 |  |  |  |  |  | 
2 | O=C(Nc1ccccc1)N(C1=NCC(CI)S1)c1ccc(F)c(F)c1 (configuration not stated) |  | > 100 |  | > 100 |  | > 100 |  |  |  | 83.5 |  | > 100 |  | > 100 | 26.3 | > 100 | > 100 |  |  | 
3 | CCn1nc(C)c2c1C(=O)NCC(=O)N2 |  | > 100 |  | > 100 |  | > 100 |  | > 100 |  |  |  | > 100 |  | > 100 | > 100 | > 100 | > 100 |  |  | 
4 | Cc1ccc(S(=O)(=O)NC(=O)Nc2nnc(S(N)(=O)=O)s2)cc1 |  | > 100 |  |  |  | > 100 |  |  |  | > 100 |  | > 100 |  | > 100 | > 100 | > 100 | > 100 |  |  | 
5 | C=CCC1(C#N)C(=S)NC2=C(C(=O)CC(C)(C)C2)C1c1ccccc1 (configuration not stated) |  | > 100 |  | > 100 |  |  |  |  |  | > 100 |  | 60.5 |  | > 100 | 90.2 | > 100 | > 100 |  |  | 
6 | CNC(C)(C)Cc1ccc(Cl)cc1 |  | > 100 |  | > 100 |  | > 100 |  | > 100 |  |  |  | > 100 |  | > 100 |  |  |  |  |  | 
7 | O=C(/C=C(/C=C/c1ccc2[nH]ccc2c1)OB(F)F)/C=C/c1ccc2[nH]ccc2c1 |  |  | 2.6 | 18.9 | 1.51 | 6.41 |  |  | 3.38 | > 100 | 3.17 | 86.9 | 2.68 | 9.29 | > 100 | 5.55 |  | 2.68 | 1.35 | 
8 | NC(=O)CNC(=O)[C@@H]1CC(OCCC(=O)O)CN1C(=O)C1CCCN1C(=O)OCc1ccccc1 (some centres not stated) |  | > 100 |  | > 100 |  | > 100 |  | > 100 |  | > 100 |  | > 100 |  |  |  | > 100 | > 100 |  |  | 
9 | O=C(Nc1ccccc1F)c1cc2ccc(O)cc2oc1=Nc1cccc(F)c1 |  | 32.6 |  |  |  | 79.1 |  | > 100 |  |  |  | 35.2 |  | 42.7 |  | 29.3 | > 100 |  |  | 
10 | Cc1ccc2nc(SCC(=O)N=Nc3c(O)[nH]c4ccccc34)n(-c3ccccc3)c(=O)c2c1 |  | 61.4 |  | 29.1 |  | 26.6 |  |  |  | 22.8 |  | 29.2 |  | 19 | 29.6 | 12.9 | 40.6 |  |  | 
11 | c1ncn(C23C4C5C6C4C2C6C53)n1 (configuration not stated) |  | > 100 |  | > 100 |  | > 100 |  | > 100 |  | > 100 |  | > 100 |  | > 100 |  |  | > 100 |  |  | 
12 | S=C1c2ccc(Cl)cc2-n2cnnc2C2CSCN12 (configuration not stated) |  | > 100 |  | > 100 |  | > 100 |  | > 100 |  | > 100 |  | > 100 |  |  |  | > 100 | > 100 |  |  | 
13 | COc1cc2c(c(O)c1O)C(=O)C1CCC(=O)N1C2c1cccc2ccccc12 (configuration not stated) |  | > 50 |  | > 50 |  | > 50 |  | > 50 |  |  |  | > 50 |  | > 50 | > 50 | > 50 | > 50 |  |  | 
14 | Cc1cc([NH-])c([NH-])cc1C.[Cl][Pt+2][Cl] | 5.06 | 27 | 8.13 | 24.6 | 6.27 | 34.6 | 7.39 | 24.5 |  |  | 19.7 | 46.7 | 8.5 | > 31.6 | 40.7 | > 100 | > 100 | 16.2 | > 77.4 | 10.5
15 | CC(=O)O[C@H]1CC(C)(C)C(=C=C/C(C)=C/C=C/C=C/C=C(C)/C=C2C=C(/C=C/[C@@]34O[C@]3(C)C[C@@H](O)CC4(C)C)C(=O)O/2)[C@](C)(O)C1 |  | > 100 |  | 35.8 |  | 43.6 |  |  |  | 97.4 |  |  |  | 38 | > 100 | 30.7 | > 100 |  |  | 
16 | CCCCCOc1ccc(C=Nc2ccc(CCc3ccc(N=Cc4ccc(OCCCCC)cc4)cc3)cc2)cc1 |  | > 100 |  | > 100 |  | > 100 |  | > 100 |  |  |  | > 100 |  | > 100 | > 100 | > 100 | > 100 |  |  | 
